Data reported in patent publication US20230191096A1, “PHARMACEUTICAL COMPOSITION FOR USE IN TREATING SUBJECT IN HYPOXIC STATE DUE TO RESPIRATORY FAILURE, ETC” (National University Corporation Tokyo Medical and Dental …, priority 2020, published 2023).

How the values were obtained:
C57BL6J mice = assay: Intrarectal oxygenated perflubron in mice having respiratory failure, SpO2 monitor; assay type: in vivo; details: 15% hypoxic condition; 40 mL/kg into the rectum
Protocol: Experiment was carried out to administer oxygenated perflubron to mice having respiratory failure. PFB manufactured by OriGen Biomedical (Perflubron, product name: Liquivent) was oxygenated by oxygen bubbling. Male C57BL6J mice (male) ranging from 20 to 30 g were grouped into two groups: control group (physiological saline administration group); and I-EVA group (using oxygenated perflubron). The mice of the control group were each anesthetized by intraperitoneal administration of ketamine (80 to 100 mg/kg) and xylazine (10 mg/kg) and subjected to inhalation under 15% hypoxic condition, and, when SpO2 just exceeded 70%, perflubron was administered into the rectum at 40 mL/kg, and effects on respiratory failure were validated by using an SpO2 monitor.

[1] = Oxygen and carbon dioxide partial pressures of the PFB before bubbling, after bubbling and after intrarectal administration; design: species or system mice; details: after oxygen bubbling vs before
C57BL/6J mice [2] = assay: Intestinal liquid ventilation (ILV) with oxygenated PFC, oxygen partial pressure in inferior vena cava; assay type: in vivo; details: 120 min after 1 mL PFC via the intestinal tract
Protocol: (§1) With use of a liquid perfluorocarbon (PFC)^12-16, an intestinal gas ventilation (ILV) system was developed. Mice were randomly assigned to two groups: sham group (group 9, n=10); and intestinal gas ventilation group (group 12, n=12). For the intestinal gas ventilation (ILV), a PFC (octadecafluorodecahydronaphthalene, Wako Pure Chemical Industries, Ltd., Osaka, Japan) was bubbled with pure oxygen for 45 minutes to dissolve oxygen therein.

C57BL/6J mice [3] = assay: ILV in respiratory failure model, oxygen partial pressure in left ventricle (FiO2 0.10); assay type: in vivo
Protocol: In ILV experiment, mice were randomly assigned to two groups: sham group (group 13, n=4); and ILV groups (group 18, n=4; group 19, n=4). The PFC was given to each mouse via the intestinal tract in the above-described manner, and 60 minutes and 120 minutes thereafter the oxygen partial pressure in the left ventricle of the heart under inhalation of hypoxic gas was analyzed (FiO2 0.10, inhalation time: 10 minutes).

C57BL/6J mice [4] = assay: Behavior analysis (walking distance) of ILV-treated hypoxic mice; assay type: in vivo; details: per 20 seconds; FiO2 0.10; 120 minutes after injection to the intestinal tract
Protocol: Behavioral improvement in ILV-treated hypoxic mice was analyzed. The mobilities of mice were monitored for a set of two parameters from a fitted ellipse (centroidal positions (x, y)). With use of these parameters, walking distance was calculated every 20 seconds for mice of a control group and a treated group (both n=3). […] For the treated group, an O2-labeled perfluorocarbon was used as described above, and inhalation of hypoxic gas (FiO2 0.10) was performed 120 minutes after the injection to the intestinal tract (FIG. 4A).

[5] = Oxygen partial pressure of PFC bubbled with pure oxygen; assay type: physicochemical
Protocol: as §1
First, an O2-containing PFC was prepared (by O2 bubbling at 1 L/min over 45 minutes; FIG. 3A). For mice (groups 12, 18, 19; hereinafter, referred to as intestinal gas ventilation (ILV) groups), the liquid of PFC was then infused into the intestinal tract (i.e., the rectum) in a total volume of 1 mL/mouse. The average oxygen pressure in the PFC after O2 bubbling for 45 minutes was 438±19.9 mmHg (n=3, FIG. 4E). Effects on the treated mice were evaluated by mobility assay. In summary, the walking distances of the mice were calculated to find statistical increase for the group with O2—PFC liquid infusion therapy after inhalation of hypoxic gas (the ILV group with administration of the O2-containing PFC) as compared with the control group (FiO2 0.10, control group, 0.408±1.02 cm per 20 seconds; FiO2 0.10, treated group, 3.34±4.05 cm, p<0.0001, FIG. 3B).

LEWIS rats = assay: Intrarectal oxygenated perfluorodecalin, blood gas (FIG. 9); assay type: in vivo; details: for blood oxygen partial pressure vs physiological saline: intrarectal 20 mL/kg
Protocol: As an experiment for reproduction, LEWIS rats (male) ranging from 250 to 350 g were grouped into three groups: control group; I-EVA group (using research-grade perfluorodecalin (PFD) from Wako Pure Chemical Industries, Ltd.); and I-EVA group (using clinical-grade perfluorodecalin from F2C). Perfluorodecalin bubbled with pure oxygen gas was administered into the rectum of each rat at 20 mL/kg, and 15 minutes and 120 minutes thereafter the arterial blood was collected under anesthesia and 21% oxygen inhalation, and the oxygen partial pressure was measured.
Next, C57BL6J mice ranging from 20 to 30 g were grouped into two group: control group (physiological saline administration group); and I-EVA group (using perfluorodecalin from F2C with oxygenation). The mice of the control group were each anesthetized by intraperitoneal administration of ketamine (80 to 100 mg/kg) and xylazine (10 mg/kg) and subjected to inhalation under 15% hypoxic condition, and, when SpO2 just exceeded 70%, oxygenated perfluorodecalin was administered into the rectum at 40 mL/kg, and effects on respiratory failure were validated by using an SpO2 monitor. After the completion of the experiment, the perfluorodecalin enterally administered was recovered, and the carbon dioxide concentration was measured to compare with that measured before the operation.

[6] = test system: acute respiratory distress syndrome (ARDS) pig model; assay: Intrarectal oxygenated PFC in acute respiratory distress syndrome (ARDS) pig model; assay type: in vivo; details: ARDS pigs
Protocol: Furthermore, an acute respiratory distress syndrome (ARDS) pig model was produced, and improvement of oxygen partial pressure by intrarectal administration of oxygenated PFC was examined. First, micromini pigs and pork pigs (female) were used to produce an ARDS model. Physiological saline was directly administered into the airway at 40 mL/kg. […] Histological examination of lung tissue confirmed impairment of alveolar walls such as the formation of hyaline membranes, the formation of residual protein layers in alveolar spaces, and septal hypertrophy. […] Then, the thus-produced ARDS pigs were each subjected to laparotomy by median incision, and a drain for administration of perfluorodecalin was placed at a depth of 40 cm from the anus, and an […] DennisTM Colorectal Tube for recovery of perfluorodecalin was placed in the anus side.

hypoxic pigs = assay: Intrarectal oxygenated PFC in hypoxic pigs; assay type: in vivo; details: intrarectal administration
[7] = Blood PFD concentration by GC/MS/MS; assay type: in vivo; details: 0.5 hours, 2 hours, and 24 hours after administration, n=6
Protocol: (§2) The blood PDF concentration 0.5 hours, 2 hours, and 24 hours after administration of perfluorodecalin (PFD) was measured by GC/MS/MS at times (n=6). […] Systemic toxicity after six cycles of administration of PDF was examined.

[8] = Systemic toxicity after six cycles of administration of PFD, analysis of serum; assay type: in vivo; details: for ALP / AST / Albumin / CK / Calcium / Chloride / Creatinine / Erythrocytes / Glucose / Hematocrit / Hemoglobin / Leukocytes / Platelets / Pottasium / Sodium / Total cholesterol / Tri-glyceride / Urea nitrogen / ALT: 6 doses (time/day), blood collection Day 2; for ALT: *p < 0.05
Protocol: as §2

mice = assay: Oral administration of PFD subjected to oxygen bubbling, left ventricular blood gas; assay type: in vivo
Protocol: PFD subjected to oxygen bubbling was administered to mice through oral administration, and the effects on blood oxygen partial pressure and carbon dioxide partial pressure were examined. As a negative control, a mouse group with oral administration of physiological saline ([…]; n=3) was used. […] In the negative control group, in contrast to that, there were smaller amounts of contents in the intestinal tract than in the bubbled-PFD oral administration group (FIG. 14A). An attempt was made to recover contents by inserting a syringe into the intestinal tract. In the attempt, transparent liquid suspected to be PFD was successfully recovered in the syringe for the bubbled-PFD oral administration group (FIG. 14B). For the negative control group, by contrast, such liquid was not recovered, and nothing recovered was left in the syringe. […] One hour after administration, tracheostomy was performed, and ventilation was performed with room air under management with a ventilator. Thoracotomy was performed and blood was collected from the heart, and the oxygen partial pressure and carbon dioxide partial pressure in the blood obtained were measured by iSTAT.

[9] = 120 minutes after administration
[10] = oral 250 μL/mouse, heart blood one hour after administration, room air ventilation

## FC(F)(F)C(F)(F)C(F)(F)C(F)(F)C(F)(F)C(F)(F)C(F)(F)C(F)(F)Br [PFB, 1-bromo-heptadecafluorooctane]
C57BL6J mice
  SpO2: significant recovery of SpO2
[1]
  oxygen partial pressure of the PFB: enhanced oxygen partial pressure

## FC1(F)C(F)(F)C(F)(F)C2(F)C(F)(F)C(F)(F)C(F)(F)C(F)(F)C2(F)C1(F)F (stereo not shown) [PFD, octadecafluorodecahydronaphthalene]
C57BL/6J mice [2]
  oxygen partial pressure in the inferior vena cava, pressure difference ILV group vs control group: 9.40±3.65 mmHg
C57BL/6J mice [3]; FiO2 0.10
  ratio of arterial oxygen partial pressure between the control group and the treated group: approximately 1.6
C57BL/6J mice [3]; ILV group, hypoxic environment (FiO2 0.10)
  ventricular (arterial) oxygen partial pressure, PaO2: 63.8±5.59 mmHg
C57BL/6J mice [3]; hypoxic environment (FiO2 0.10), 60 minutes after ILV
  oxygen partial pressure in the left ventricle of the heart vs control group: significantly higher
C57BL/6J mice [3]; hypoxic environment (FiO2 0.10), after 120 minutes
  oxygen partial pressure in the left ventricle of the heart, pressure difference ILV group vs control group: 23.8±3.11 mmHg
C57BL/6J mice [4]
  walking distance: 3.34±4.05 cm
[5]; after O2 bubbling for 45 minutes (1 L/min), n=3
  average oxygen pressure in the PFC: 438±19.9 mmHg
[5]; bubbled with pure oxygen, after 120 minutes
  average pressure of oxygen in the perfluorocarbon: 438±19.9 mmHg
LEWIS rats; [9]
  blood carbon dioxide partial pressure vs physiological saline: significantly decreasing blood carbon dioxide partial pressure
  blood oxygen partial pressure vs physiological saline: enhancing blood oxygen partial pressure
LEWIS rats; 15 minutes after administration
  blood oxygen partial pressure vs physiological saline: enhancing blood oxygen partial pressure
[6]
  acidosis: did not exhibit marked acidosis
[6]; oxygenated perfluorodecalin repeatedly at 20 mL/kg intrarectal
  oxygen partial pressure, improvement: about 300 mmHg
Hypoxic pigs
  blood oxygen partial pressure: improvement in blood oxygen partial pressure
  carbon dioxide partial pressure: decrease in carbon dioxide partial pressure
  oxygen saturation: improved the oxygen saturation
[7]
  blood PFD concentration (detection limit): < 1 µg/mL
[8]; PFD dose volume 1 ml/head
  ALP: 470 ± 112 U/L
  AST: 68 ± 2 U/L
  Albumin: 2.6 ± 0.1 g/dL
  CK: 170 ± 22 U/L
  Calcium: 10.1 ± 0.1 mg/dL
  Chloride: 103 ± 1 mmol/L
  Creatinine: 0.2 mg/dL
  Erythrocytes: 752 ± 24 ×10^4/μl
  Glucose: 123 ± 22 mg/dL
  Hematocrit: 45.0 ± 1.1%
  Hemoglobin: 15.1 ± 0.7 g/dL
  Leukocytes: 102 ± 18 10^2/μL
  Platelets: 112 ± 11.5 10^4/µL
  Pottasium: 3.6 ± 0.2 mmol/L
  Sodium: 143 mmol/L
  Total cholesterol: 75 ± 20 mg/dL
  Tri-glyceride: 21 ± 7 mg/dL
  Urea nitrogen: 14 ± 2 mg/dL
  ALT: 24 ± 3* U/L
[8]; PFD dose volume 1.5 ml/head
  ALP: 540 ± 64 U/L
  AST: 72 ± 5 U/L
  Albumin: 2.6 ± 0.1 g/dL
  CK: 196 ± 12 U/L
  Calcium: 9.9 ± 0.3 mg/dL
  Chloride: 105 ± 1 mmol/L
  Creatinine: 0.3 ± 0.1 mg/dL
  Erythrocytes: 791 ± 24 ×10^4/μl
  Glucose: 123 ± 18 mg/dL
  Hematocrit: 45.6 ± 1.4%
  Hemoglobin: 15.2 ± 0.6 g/dL
  Leukocytes: 88 ± 5 10^2/μL
  Platelets: 124 ± 20.1 10^4/µL
  Pottasium: 3.6 ± 0.2 mmol/L
  Sodium: 143 ± 1 mmol/L
  Total cholesterol: 71 ± 22 mg/dL
  Tri-glyceride: 20 ± 4 mg/dL
  Urea nitrogen: 14 ± 2 mg/dL
  ALT: 25 ± 1* U/L
[8]; six cycles of administration, serum analysis
  toxicity due to intrarectal administration: no particular toxicity
mice; oral 250 μL/mouse to the stomach by probe
  gastrointestinal transit after oral administration: passed through the stomach and arrived at the intestine
mice; [10]
  blood carbon dioxide partial pressure vs negative control group: tendency to exhibit decreased blood carbon dioxide partial pressure
  blood oxygen partial pressure vs negative control group: tendency to exhibit increased blood oxygen partial pressure
